The record followed here is patent publication US8598226B2, “Fused cyclic compounds” (Takeda Pharmaceutical Company Limited, priority 2006, dated 2013).

Counter-ions that a name gives are not always drawn.

T1 sequence (O14842 whole entry): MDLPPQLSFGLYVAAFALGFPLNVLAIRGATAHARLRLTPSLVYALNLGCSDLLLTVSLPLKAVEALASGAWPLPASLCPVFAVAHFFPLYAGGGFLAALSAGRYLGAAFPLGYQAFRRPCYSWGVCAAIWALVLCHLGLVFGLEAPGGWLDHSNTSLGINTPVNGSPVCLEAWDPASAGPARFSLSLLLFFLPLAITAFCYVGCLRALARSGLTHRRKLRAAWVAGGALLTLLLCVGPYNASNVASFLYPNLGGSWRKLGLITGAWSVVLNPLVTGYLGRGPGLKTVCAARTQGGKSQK

One test has as its target T1, human-derived GPR40 (Homo sapiens, UniProt O14842).
T1 construct: expressed in transfected cells
Briefly: Receptor function modulating action (agonist action) on human-derived GPR40: variation in intracellular calcium concentration in CHO cells (FLIPR or Cell Lux). Format: cell-based. The settings on record: each compound at 1 μM; relative to activity of 10 μM γ-linolenic acid = 100%; CHO cell line stably expressing human-derived GPR40; FLIPR for Examples 2, 6, 8, 10, 11, 13, Cell Lux for Examples 19-34. As for the experimental part:
A CHO cell line stably expressing human-derived GPR40 was used for determining the agonist activity. […] One day before the assay, the cells cultured to near confluence were rinsed with PBS (Invitrogen), detached using 0.5 mM EDTA (Wako Pure Chemical Industries, Ltd.) and recovered by centrifugation. The obtained cells were counted and diluted to 3×10^5 cells per 1 mL medium. The cells were dispensed to a 96-well black clear bottom plate (Coster) by 100 μL per well and cultured overnight in a CO2 incubator. To the CHO cells prepared in this manner were added various test compounds, and variation in the intracellular calcium concentration was measured using FLIPR (Molecular Device) or Cell Lux (PerkinElmer). For measurement of variation in the intracellular calcium concentration using FLIPR or Cell Lux, the following pretreatment was performed. […] Then, a fluorescence dye solution was dispensed by 100 μL per well, and the cells were cultured in a CO2 incubator for 1 hr to allow intake of the fluorescence dye. During this time, the test compound was diluted to a given concentration with the assay buffer, and dispensed to a polypropylene 96-well plate (sample plate) by 100 μL. The cell plate and the sample plate were simultaneously set in the FLIPR or Cell Lux. After the foregoing pretreatment, variation in the intracellular calcium concentration after addition of 50 μL of various test compounds was measured using FLIPR or Cell Lux.
(In general: Calcium assays in cells follow changes in intracellular calcium, usually with a dye or a luminescent sensor.)
On to `Cc1cc(OC2CCS(=O)(=O)CC2)cc(C)c1-c1cccc(COc2ccc3c(c2)OC[C@H]3CC(=O)O)c1` [Example 2, [(3S)-6-({4′-[(1,1-dioxidotetrahydro-2H-thiopyran-4-yl)oxy]-2′,6′-dimethylbiphenyl-3-yl}methoxy)-2,3-dihydro-1-benzofuran-3-yl]acetic acid], for which the activation at 1 µM was found to be 107%.
Same read-out and setting: for `Cc1cc(OCC2(O)CCS(=O)(=O)CC2)cc(C)c1-c1cccc(COc2ccc3c(c2)OC[C@H]3CC(=O)O)c1` [Example 6, [(3S)-6-({4′-[(4-hydroxy-1,1-dioxidotetrahydro-2H-thiopyran-4-yl)methoxy]-2′,6′-dimethylbiphenyl-3-yl}methoxy)-2,3-dihydro-1-benzofuran-3-yl]acetic acid] the value was 102%; for `Cc1c(C)c(-c2cccc(COc3ccc4c(c3)OC[C@H]4CC(=O)O)c2)c(C)c(C)c1OCCCS(C)(=O)=O` [Example 8, [(3S)-6-({2′,3′,5′,6′-tetrameramethyl-4′-[3-(methylsulfonyl)propoxy]biphenyl-3-yl}methoxy)-2,3-dihydro-1-benzofuran-3-yl]acetic acid], 112%.
Take `Cc1cc(OCCCS(C)(=O)=O)cc(C)c1-c1cccc(COc2ccc3c(c2)OC[C@H]3CC(=O)O)c1` [Example 10, [(3S)-6-({2′,6′-dimethyl-4′-[3-(methylsulfonyl)propoxy]biphenyl-3-yl}methoxy)-2,3-dihydro-1-benzofuran-3-yl]acetic acid]: the Relative activity value is 114%.
`CCS(=O)(=O)CCOc1cc(C)c(-c2cccc(COc3ccc4c(c3)OC[C@H]4CC(=O)O)c2)c(C)c1` [Example 11, [(3S)-6-({4′-[2-(ethylsulfonyl)ethoxy]-2′,6′-dimethylbiphenyl-3-yl}methoxy)-2,3-dihydro-1-benzofuran-3-yl]acetic acid]: the activation at 1 µM was determined as 120%.
Same read-out and setting: the same measure for `Cc1cc(OCCCS(C)(=O)=O)c(F)c(C)c1-c1cccc(COc2ccc3c(c2)OC[C@H]3CC(=O)O)c1` [Example 13, [(3S)-6-({3′-fluoro-2′,6′-dimethyl-4′-[3-(methylsulfonyl)propoxy]biphenyl-3-yl}methoxy)-2,3-dihydro-1-benzofuran-3-yl]acetic acid]: 125%.
In the case of `Cc1cc(OCCCS(C)(=O)=O)cc(CO)c1-c1cccc(COc2ccc3c(c2)OC[C@H]3CC(=O)O)c1` [Example 19, [(3S)-6-({2′-(hydroxymethyl)-6′-methyl-4′-[3-(methylsulfonyl)propoxy]biphenyl-3-yl}methoxy)-2,3-dihydro-1-benzofuran-3-yl]acetic acid], the activation at 1 µM came to 118%.
Still for that read-out and setting: the same measure for `Cc1cc(OCCCS(C)(=O)=O)c(Cl)c(C)c1-c1cccc(COc2ccc3c(c2)OC[C@H]3CC(=O)O)c1` [Example 22, [(3S)-6-({3′-chloro-2′,6′-dimethyl-4′-[3-(methylsulfonyl)propoxy]biphenyl-3-yl}methoxy)-2,3-dihydro-1-benzofuran-3-yl]acetic acid]: 121%; for `Cc1c(Cl)c(OCCCS(C)(=O)=O)c(Cl)c(C)c1-c1cccc(COc2ccc3c(c2)OC[C@H]3CC(=O)O)c1` [Example 24, [(3S)-6-({3′,5′-dichloro-2′,6′-dimethyl-4′-[3-(methylsulfonyl)propoxy]biphenyl-3-yl}methoxy)-2,3-dihydro-1-benzofuran-3-yl]acetic acid]: 96%.
Still for that read-out and setting: for `CCc1cc(OCCCS(C)(=O)=O)cc(CC)c1-c1cccc(COc2ccc3c(c2)OC[C@H]3CC(=O)O)c1` [Example 26, [(3S)-6-({2′,6′-diethyl-4′-[3-(methylsulfonyl)propoxy]biphenyl-3-yl}methoxy)-2,3-dihydro-1-benzofuran-3-yl]acetic acid] the value was 101%.
Same read-out and setting: the same measure for `CCc1c(Cl)c(OCCCS(C)(=O)=O)c(Cl)c(CC)c1-c1cccc(COc2ccc3c(c2)OC[C@H]3CC(=O)O)c1` [Example 28, [(3S)-6-({3′,5′-dichloro-2′,6′-diethyl-4′-[3-(methylsulfonyl)propoxy]biphenyl-3-yl}methoxy)-2,3-dihydro-1-benzofuran-3-yl]acetic acid]: 92%; for `Cc1cc(OCCCS(C)(=O)=O)cc(C)c1-c1cc(COc2ccc3c(c2)OC[C@H]3CC(=O)O)ccc1Oc1ccccc1` [Example 30, [(3S)-6-({2′,6′-dimethyl-4′-[3-(methylsulfonyl)propoxy]-6-phenoxybiphenyl-3-yl}methoxy)-2,3-dihydro-1-benzofuran-3-yl]acetic acid 0.5 calcium salt]: 108%.
With `Cc1cc(OCCCS(C)(=O)=O)cc(C)c1-c1cc(COc2ccc3c(c2)OC[C@H]3CC(=O)O)ccc1COc1ccccc1` [Example 32, [(3S)-6-({2′,6′-dimethyl-4′-[3-(methylsulfonyl)propoxy]-6-(phenoxymethyl)biphenyl-3-yl}methoxy)-2,3-dihydro-1-benzofuran-3-yl]acetic acid], the activation at 1 µM is 104%.
The same measure, in the same setting: the same measure for `Cc1cc(OCCCS(C)(=O)=O)cc(C)c1-c1cc(COc2ccc3c(c2)OC[C@H]3CC(=O)O)c(F)cc1OCc1ccccc1` [Example 34, [(3S)-6-({6-(benzyloxy)-4-fluoro-2′,6′-dimethyl-4′-[3-(methylsulfonyl)propoxy]biphenyl-3-yl}methoxy)-2,3-dihydro-1-benzofuran-3-yl]acetic acid]: 119%.

The test is the same for the next values; noted with them: each compound at 1 μM; relative to activity of 10 μM γ-linolenic acid = 100%; CHO cell line stably expressing human-derived GPR40; FLIPR for Examples 2, 6, 8, 10, 11, 13, Cell Lux for Examples 19-34; hydrate.
Turning to `Cc1cc(OCCCS(C)(=O)=O)cc(C)c1-c1cccc(COc2ccc3c(c2)OC[C@H]3CC(=O)O)c1` [Example 20, [(3S)-6-({2′,6′-dimethyl-4′-[3-(methylsulfonyl)propoxy]biphenyl-3-yl}methoxy)-2,3-dihydro-1-benzofuran-3-yl]acetic acid 0.5 hydrate], the Relative activity value was determined as 118%.

Staying with this test, now noted: reference agonist at 10 μM, its activity set as 100%; CHO cell line stably expressing human-derived GPR40.
In the case of `CCCCC/C=C\C/C=C\C/C=C\CCCCC(=O)O` [γ-linoleic acid, γ-linolenic acid, reference compound], the Relative activity value is listed as 100%.
